Measurements as given in PubChem BioAssay AID1259408 (Genetic Toxicology Data Bank (GENE-TOX), 2018).
Calls of active or inactive are those of the source. How the calls were made is not given here.

System: GENE-TOX genotoxicity assays, various organisms and cells
Assay: GENE-TOX mutagenicity studies
Settings: for call: Assay Type: In vivo carcinogenicity studies, Assay Code: CCG+
[1] = Species/Cell Type: Nonhuman, Evaluation Type: Evaluation A (Pre-1980)
[2] = Species/Cell Type: Salmonella typhimurium (one or more of the five standard strains: TA98, TA100, TA1535, TA1537, and TA1538), Assay Type: Histidine reverse gene mutation, Ames assay, Assay Code: SAL+*, Activation: With metabolic activation, Evaluation Type: Evaluation A (Pre-1980)
[3] = Species/Cell Type: Human, Assay Type: Sister-chromatid exchange (SCE) in vitro, Assay Code: SC1T, Evaluation Type: Evaluation B (Post-1980)
[4] = Species/Cell Type: Saccharomyces cerevisiae, Assay Type: Mitotic recombination or gene conversion, Assay Code: YEC-, Evaluation Type: Evaluation A (Pre-1980)
[5] = Species/Cell Type: Vicia faba, Assay Type: Chromosome aberrations, Assay Code: VIC+, Evaluation Type: Evaluation A (Pre-1980)

Nc1ccc2cc3ccccc3cc2c1
mutagenic call (Species/Cell Type: Escherichia coli polA (W3110 vs P3478), Assay Type: Rec-assay, DNA effects (bacterial DNA repair), Assay Code: RE2+, Evaluation Type: Evaluation A (Pre-1980)): active; positive | mutagenic call (Species/Cell Type: Escherichia coli polA (W3119 vs P3478), Assay Type: Rec-assay, DNA effects (bacterial DNA repair), Assay Code: RE1T, Evaluation Type: Evaluation A (Pre-1980)): no conclusion | mutagenic call (Species/Cell Type: Mouse (BALB/c-3T3) cells, Assay Type: Cell transformation, Assay Code: CTB-, Evaluation Type: Evaluation A (Pre-1980)): inactive; negative | mutagenic call (Species/Cell Type: Mouse embryo (AKR/ME) cells, Assay Type: Cell transformation, Assay Code: CTK+, Evaluation Type: Evaluation A (Pre-1980)): active; positive | call [1]: active; positive | mutagenic call (Species/Cell Type: Nonhuman, Assay Type: Sister-chromatid exchange (SCE) in vitro, Assay Code: SC2+, Evaluation Type: Evaluation B (Post-1980)): active; positive | mutagenic call (Species/Cell Type: Nonhuman, Assay Type: Sister-chromatid exchange (SCE) in vivo, Assay Code: SC3+D, Dose Response: With dose response, Evaluation Type: Evaluation B (Post-1980)): active; positive | mutagenic call (Species/Cell Type: Saccharomyces cerevisiae, Assay Type: Mitotic recombination or gene conversion, Assay Code: YEH-, Evaluation Type: Evaluation A (Pre-1980)): inactive; negative | mutagenic call [2]: active; positive | mutagenic call (Species/Cell Type: Salmonella typhimurium, Assay Type: Forward and reverse gene mutation, host-mediated assay, Assay Code: HMA+, Evaluation Type: Evaluation A (Pre-1980)): active; positive | mutagenic call (Species/Cell Type: Syrian hamster embryo (SHE) cells, Assay Type: Cell transformation, clonal assay, Assay Code: CTC+, Evaluation Type: Evaluation A (Pre-1980)): active; positive

Cc1cc(-c2ccc(N/N=C3/C(=O)c4c(N)cc(S(=O)(=O)O)cc4C=C3S(=O)(=O)O)c(C)c2)ccc1N/N=C1/C(=O)c2c(N)cc(S(=O)(=O)O)cc2C=C1S(=O)(=O)O
mutagenic call (Species/Cell Type: Bacillus subtilis (H17 vs M45), Assay Type: Rec-assay, spot test, DNA effects (bacterial DNA repair), Assay Code: REW+, Evaluation Type: Evaluation A (Pre-1980)): active; positive | call [1]: active; positive | mutagenic call (Species/Cell Type: Salmonella typhimurium (one or more of the five standard strains: TA98, TA100, TA1535, TA1537, and TA1538), Assay Type: Histidine reverse gene mutation, Ames assay, Assay Code: SAL-, Evaluation Type: Evaluation A (Pre-1980)): inactive; negative

CCc1cccc(O)c1
mutagenic call (Species/Cell Type: Human lymphocytes, Assay Type: Sister-chromatid exchange (SCE) in vitro, Assay Code: SCLT, Evaluation Type: Evaluation B (Post-1980)): no conclusion | mutagenic call [3]: no conclusion

CSc1nnc(C(C)(C)C)c(=O)n1N
mutagenic call [4]: inactive; negative

CC(C)C[C@H](NC(=O)[C@@H](O)[C@H](N)Cc1ccccc1)C(=O)O
mutagenic call [3]: no conclusion

CCC(C)c1cc([N+](=O)[O-])cc([N+](=O)[O-])c1OC(C)=O (centres undefined)
mutagenic call [4]: inactive; negative

[O-]/[N+](=N\O)c1ccccc1
call [1]: active; positive | mutagenic call [5]: active; positive

N/C(=N\O)c1ccc([N+](=O)[O-])o1
mutagenic call (Species/Cell Type: Nonhuman, Assay Type: Sister-chromatid exchange (SCE) in vitro, Assay Code: SC2+D, Dose Response: With dose response, Evaluation Type: Evaluation B (Post-1980)): active; positive | mutagenic call (Species/Cell Type: Salmonella typhimurium (one or more of the five standard strains: TA98, TA100, TA1535, TA1537, and TA1538), Assay Type: Histidine reverse gene mutation, Ames assay, Assay Code: SAL+, Evaluation Type: Evaluation A (Pre-1980)): active; positive

Nc1ccc(I)cc1
mutagenic call (Species/Cell Type: Mouse, Sex: Male, Assay Type: Sperm morphology, Assay Code: SPI-, Evaluation Type: Evaluation A (Pre-1980)): inactive; negative

Cc1ccc2c(ccc3c4ccccc4ccc23)c1
mutagenic call [2]: active; positive

COc1cc2c(c3c(C)cc4ccccc4c13)CCC2=O
mutagenic call [2]: active; positive

CCN(CC)C(=O)/C(Cl)=C(\C)OP(=O)(OC)OC
mutagenic call (Species/Cell Type: Hordeum vulgare (barley), Assay Type: Chromosome aberrations, Assay Code: HOC+D, Dose Response: With dose response, Evaluation Type: Evaluation A (Pre-1980)): active; positive | mutagenic call (Species/Cell Type: Mammalian polychromatic erythrocytes, Assay Type: Micronucleus test, chromosome aberrations, Assay Code: MNT+, Evaluation Type: Evaluation B (Post-1980)): active; positive | mutagenic call [5]: active; positive

Cc1cccc(C2CO2)c1 (centres undefined)
mutagenic call (Species/Cell Type: Escherichia coli WP2 UVRA, Assay Type: Tryptophan reverse gene mutation, Assay Code: WPU+D, Dose Response: With dose response, Evaluation Type: Evaluation A (Pre-1980)): active; positive

[Cu+].[Cu].[SH-]
mutagenic call (Species/Cell Type: Syrian hamster embryo (SA7/SHE) cells, Assay Type: Cell transformation, viral enhanced, Assay Code: CT7+, Evaluation Type: Evaluation A (Pre-1980)): active; positive

C#C[C@]1(O)CC[C@H]2[C@@H]3CCc4cc(OC)ccc4[C@H]3CC[C@@]21C
call [1]: active; positive

CC(=O)O[C@H]1C[C@@H]2CC[C@@H]3[C@H](CC[C@@]4(C)[C@H]3C[C@H]([N+]3(C)CCCCC3)[C@@H]4OC(C)=O)[C@@]2(C)C[C@@H]1[N+]1(C)CCCCC1
mutagenic call (Species/Cell Type: Salmonella typhimurium (one or more of the five standard strains: TA98, TA100, TA1535, TA1537, and TA1538), Assay Type: Histidine reverse gene mutation, Ames assay, Assay Code: SALT, Evaluation Type: Evaluation A (Pre-1980)): no conclusion

C[C@@H]1CCCCN1N=O
call [1]: active; positive
